# Data reported in patent publication US10485235B2, “Aryloxypyrimidinyl ethers as herbicides” (FMC Corporation, priority 2015, dated 2019).
# Tested on: blackgrass (Alopecurus myosuroides)
# Assay: Test A postemergence, blackgrass
# Type: in vivo
# Conditions: Alopecurus myosuroides, post-emergence, 240 h; 31 g ai/ha, postemergence; 0 to 100 scale, 0 is no effect, 100 is complete control; approximately 10 days; read-out: Plant response rating, Blackgrass
# Summary of the method: (§1)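 Pre- and postemergence greenhouse screen in loam–sand soil. Test chemicals were delivered in a non-phytotoxic solvent with surfactant, preemergence as a directed spray onto seeded soil and postemergence onto 2–10 cm seedlings. Injury was judged by eye after ~10 days on a 0–100 scale.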
row,SMILES,pest or weed control at 31 g/ha [%]
1,Cc1cccc(Oc2ncc(Cl)cn2)c1OCC(F)(F)F [Compound 63],0

# Same assay, conditions: Alopecurus myosuroides, post-emergence, 240 h; 125 g ai/ha, postemergence; 0 to 100 scale, 0 is no effect, 100 is complete control; approximately 10 days; read-out: Plant response rating, Blackgrass
row,SMILES,pest or weed control at 125 g/ha [%]
1,Cc1cccc(Oc2ncc(Cl)cn2)c1OCC(F)(F)F [Compound 63],0

# Tested on: foxtail, giant (giant foxtail, Setaria faberii)
# Assay: Test A preemergence, giant foxtail
# Type: in vivo
# Conditions: Setaria faberi, pre-emergence, 240 h; Preemergence, 31 g ai/ha; 0 to 100 scale (0 no effect, 100 complete control); read-out: Plant response rating, Foxtail, Giant
# Summary of the method: as §1
row,SMILES,pest or weed control at 31 g/ha [%]
1,Cc1cccc(Oc2ncc(Cl)cn2)c1OCC(F)(F)F [Compound 63],0

# Same assay, conditions: Setaria faberi, pre-emergence, 240 h; Preemergence, 125 g ai/ha; 0 to 100 scale (0 no effect, 100 complete control); read-out: Plant response rating, Foxtail, Giant
row,SMILES,pest or weed control at 125 g/ha [%]
1,Cc1cccc(Oc2ncc(Cl)cn2)c1OCC(F)(F)F [Compound 63],0

# Tested on: kochia (Kochia scoparia)
# Assay: Test A preemergence, kochia
# Type: in vivo
# Conditions: Bassia scoparia, pre-emergence, 240 h; Preemergence, 31 g ai/ha; 0 to 100 scale (0 no effect, 100 complete control); read-out: Plant response rating, Kochia
# Summary of the method: as §1
row,SMILES,pest or weed control at 31 g/ha [%]
1,Cc1cccc(Oc2ncc(Cl)cn2)c1OCC(F)(F)F [Compound 63],0

# Same assay, conditions: Bassia scoparia, pre-emergence, 240 h; Preemergence, 125 g ai/ha; 0 to 100 scale (0 no effect, 100 complete control); read-out: Plant response rating, Kochia
row,SMILES,pest or weed control at 125 g/ha [%]
1,Cc1cccc(Oc2ncc(Cl)cn2)c1OCC(F)(F)F [Compound 63],0

# Tested on: wheat (Triticum aestivum)
# Assay: Test A postemergence, wheat
# Type: in vivo
# Conditions: Triticum aestivum, post-emergence, 240 h; 31 g ai/ha, postemergence; 0 to 100 scale, 0 is no effect, 100 is complete control; approximately 10 days; read-out: Plant response rating, Wheat
# Summary of the method: as §1
row,SMILES,plant injury at 31 g/ha [%]
1,Cc1cccc(Oc2ncc(Cl)cn2)c1OCC(F)(F)F [Compound 63],0

# Same assay, conditions: Triticum aestivum, post-emergence, 240 h; 125 g ai/ha, postemergence; 0 to 100 scale, 0 is no effect, 100 is complete control; approximately 10 days; read-out: Plant response rating, Wheat
row,SMILES,plant injury at 125 g/ha [%]
1,Cc1cccc(Oc2ncc(Cl)cn2)c1OCC(F)(F)F [Compound 63],0

# Tested on: ragweed (common ragweed, Ambrosia elatior)
# Assay: Test A preemergence, ragweed
# Type: in vivo
# Conditions: Ambrosia artemisiifolia, pre-emergence, 240 h; Preemergence, 31 g ai/ha; 0 to 100 scale (0 no effect, 100 complete control); read-out: Plant response rating, Ragweed
# Summary of the method: as §1
row,SMILES,pest or weed control at 31 g/ha [%]
1,Cc1cccc(Oc2ncc(Cl)cn2)c1OCC(F)(F)F [Compound 63],0

# Same assay, conditions: Ambrosia artemisiifolia, pre-emergence, 240 h; Preemergence, 125 g ai/ha; 0 to 100 scale (0 no effect, 100 complete control); read-out: Plant response rating, Ragweed
row,SMILES,pest or weed control at 125 g/ha [%]
1,Cc1cccc(Oc2ncc(Cl)cn2)c1OCC(F)(F)F [Compound 63],0

# Tested on: pigweed (Amaranthus retroflexus)
# Assay: Test A preemergence, pigweed
# Type: in vivo
# Conditions: Amaranthus retroflexus, pre-emergence, 240 h; Preemergence, 31 g ai/ha; 0 to 100 scale (0 no effect, 100 complete control); read-out: Plant response rating, Pigweed
# Summary of the method: as §1
row,SMILES,pest or weed control at 31 g/ha [%]
1,Cc1cccc(Oc2ncc(Cl)cn2)c1OCC(F)(F)F [Compound 63],0

# Same assay, conditions: Amaranthus retroflexus, pre-emergence, 240 h; Preemergence, 125 g ai/ha; 0 to 100 scale (0 no effect, 100 complete control); read-out: Plant response rating, Pigweed
row,SMILES,pest or weed control at 125 g/ha [%]
1,Cc1cccc(Oc2ncc(Cl)cn2)c1OCC(F)(F)F [Compound 63],0

# Tested on: ducksalad (Heteranthera limosa)
# Assay: Test B flooded paddy test, ducksalad
# Type: in vivo
# Conditions: Heteranthera limosa; 250 g ai/ha, Flood; visual rating after 13 to 15 days; scale 0 to 100, 0 is no effect, 100 is complete control; read-out: Plant response rating, Ducksalad
# Summary of the method: (§2)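 Visual ratings, 0 = no effect to 100 = complete control, versus controls after 13 to 15 days in greenhouse. Test compounds were added to paddy water kept 3 cm over the soil surface, on plants at 2-leaf stage.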
row,SMILES,pest or weed control at 250 g/ha [%]
1,Cc1cccc(Oc2ncc(Cl)cn2)c1OCC(F)(F)F [Compound 63],100

# Tested on: ryegrass, Italian (Italian ryegrass, Lolium multiflorum)
# Assay: Test A preemergence, Italian ryegrass
# Type: in vivo
# Conditions: Lolium multiflorum, pre-emergence, 240 h; Preemergence, 31 g ai/ha; 0 to 100 scale (0 no effect, 100 complete control); read-out: Plant response rating, Ryegrass, Italian
# Summary of the method: as §1
row,SMILES,pest or weed control at 31 g/ha [%]
1,Cc1cccc(Oc2ncc(Cl)cn2)c1OCC(F)(F)F [Compound 63],0

# Same assay, conditions: Lolium multiflorum, pre-emergence, 240 h; Preemergence, 125 g ai/ha; 0 to 100 scale (0 no effect, 100 complete control); read-out: Plant response rating, Ryegrass, Italian
row,SMILES,pest or weed control at 125 g/ha [%]
1,Cc1cccc(Oc2ncc(Cl)cn2)c1OCC(F)(F)F [Compound 63],0

# Tested on: corn (Zea mays)
# Assay: Test A postemergence, corn
# Type: in vivo
# Conditions: Zea mays, post-emergence, 240 h; 31 g ai/ha, postemergence; 0 to 100 scale, 0 is no effect, 100 is complete control; approximately 10 days
# Summary of the method: as §1
row,SMILES,"Corn plant response rating (crop injury, 0 = no effect, 100 = complete kill) at 31 g/ha [%]"
1,Cc1cccc(Oc2ncc(Cl)cn2)c1OCC(F)(F)F [Compound 63],0

# Same assay, conditions: Zea mays, post-emergence, 240 h; 125 g ai/ha, postemergence; 0 to 100 scale, 0 is no effect, 100 is complete control; approximately 10 days
row,SMILES,"Corn plant response rating (crop injury, 0 = no effect, 100 = complete kill) at 125 g/ha [%]"
1,Cc1cccc(Oc2ncc(Cl)cn2)c1OCC(F)(F)F [Compound 63],0

# Tested on: rice (Oryza sativa)
# Assay: Test B flooded paddy test, rice
# Type: in vivo
# Conditions: Oryza sativa; 250 g ai/ha, Flood; visual rating after 13 to 15 days; scale 0 to 100, 0 is no effect, 100 is complete control; read-out: Plant response rating, Rice
# Summary of the method: as §2
row,SMILES,plant injury at 250 g/ha [%]
1,Cc1cccc(Oc2ncc(Cl)cn2)c1OCC(F)(F)F [Compound 63],0

# Tested on: pigweed (Amaranthus retroflexus)
# Assay: Test A postemergence, pigweed
# Type: in vivo
# Conditions: Amaranthus retroflexus, post-emergence, 240 h; 31 g ai/ha, postemergence; 0 to 100 scale, 0 is no effect, 100 is complete control; approximately 10 days; read-out: Plant response rating, Pigweed
# Summary of the method: as §1
row,SMILES,pest or weed control at 31 g/ha [%]
1,Cc1cccc(Oc2ncc(Cl)cn2)c1OCC(F)(F)F [Compound 63],0

# Same assay, conditions: Amaranthus retroflexus, post-emergence, 240 h; 125 g ai/ha, postemergence; 0 to 100 scale, 0 is no effect, 100 is complete control; approximately 10 days; read-out: Plant response rating, Pigweed
row,SMILES,pest or weed control at 125 g/ha [%]
1,Cc1cccc(Oc2ncc(Cl)cn2)c1OCC(F)(F)F [Compound 63],0

# Tested on: sedge, umbrella (small-flower umbrella sedge, Cyperus difformis)
# Assay: Test B flooded paddy test, umbrella sedge
# Type: in vivo
# Conditions: Cyperus difformis; 250 g ai/ha, Flood; visual rating after 13 to 15 days; scale 0 to 100, 0 is no effect, 100 is complete control; read-out: Plant response rating, Sedge, Umbrella
# Summary of the method: as §2
row,SMILES,pest or weed control at 250 g/ha [%]
1,Cc1cccc(Oc2ncc(Cl)cn2)c1OCC(F)(F)F [Compound 63],90

# Tested on: barnyardgrass (Echinochloa crus-galli)
# Assay: Test B flooded paddy test, barnyardgrass
# Type: in vivo
# Conditions: Echinochloa crus-galli; 250 g ai/ha, Flood; visual rating after 13 to 15 days; scale 0 to 100, 0 is no effect, 100 is complete control; read-out: Plant response rating, Barnyardgrass
# Summary of the method: as §2
row,SMILES,pest or weed control at 250 g/ha [%]
1,Cc1cccc(Oc2ncc(Cl)cn2)c1OCC(F)(F)F [Compound 63],0

# Tested on: barnyardgrass (Echinochloa crus-galli)
# Assay: Test A preemergence, barnyardgrass
# Type: in vivo
# Conditions: Echinochloa crus-galli, pre-emergence, 240 h; Preemergence, 31 g ai/ha; 0 to 100 scale (0 no effect, 100 complete control); read-out: Plant response rating, Barnyardgrass
# Summary of the method: as §1
row,SMILES,pest or weed control at 31 g/ha [%]
1,Cc1cccc(Oc2ncc(Cl)cn2)c1OCC(F)(F)F [Compound 63],0

# Same assay, conditions: Echinochloa crus-galli, pre-emergence, 240 h; Preemergence, 125 g ai/ha; 0 to 100 scale (0 no effect, 100 complete control); read-out: Plant response rating, Barnyardgrass
row,SMILES,pest or weed control at 125 g/ha [%]
1,Cc1cccc(Oc2ncc(Cl)cn2)c1OCC(F)(F)F [Compound 63],0

# Tested on: ragweed (common ragweed, Ambrosia elatior)
# Assay: Test A postemergence, ragweed
# Type: in vivo
# Conditions: Ambrosia artemisiifolia, post-emergence, 240 h; 31 g ai/ha, postemergence; 0 to 100 scale, 0 is no effect, 100 is complete control; approximately 10 days; read-out: Plant response rating, Ragweed
# Summary of the method: as §1
row,SMILES,pest or weed control at 31 g/ha [%]
1,Cc1cccc(Oc2ncc(Cl)cn2)c1OCC(F)(F)F [Compound 63],0

# Same assay, conditions: Ambrosia artemisiifolia, post-emergence, 240 h; 125 g ai/ha, postemergence; 0 to 100 scale, 0 is no effect, 100 is complete control; approximately 10 days; read-out: Plant response rating, Ragweed
row,SMILES,pest or weed control at 125 g/ha [%]
1,Cc1cccc(Oc2ncc(Cl)cn2)c1OCC(F)(F)F [Compound 63],0
